Reference: patent US20220220155A1, “VASCULAR C[…] USE THEREOF” (priority 2019, published 2022)
Where a SMILES comes first, the peptide text is derived from it. [ ]: non-standard residue; d: D form. ξ: configuration not given here. ξD = NC(CC(=O)O)C(=O)O

What was measured:
[1] = system: human coronary vascular smooth muscle cells (hcVSMC); experiment: Inhibition of intracellular cholesterol accumulation induced by SMase (CE/FC ratio); assay type: cell-based; conditions: hcVSMC exposed 2 hours to SMase-LDL treated overnight with peptide 10 μM; CE and FC by thin layer chromatography and densitometry, Equation II
Description: Thus, the inhibitory effect of the novel compounds on the intracellular cholesterol accumulation has been analysed in terms of decrease in the ratio of intracellular CE and free cholesterol FC content of hcVSMC exposed to LDL and SMase-LDL.
All cells used were from a unique batch in order to prevent variability from cell origin. Cell quiescence was induced by maintaining the cell culture for 24 hours in a medium. Serum-deprived cells between passages 4 and 8 were used for experiments. VSMCs at these passages appeared as a relatively homogeneous population, showing a hill-and-valley confluence pattern. Cell monolayers were grown in vascular cell basal medium supplemented with vascular smooth muscle growth kit components. Quiescent cells were 2-hours exposed to LDL treated with SMase (in absence or presence of peptides) overnight at a concentration of 10 μM previously checked its aggregation by a turbidimetry test. Cells were then either collected for lipid extraction or processed for confocal microscopy analysis.
Following the lipoprotein incubation period, hcVSMC were exhaustively washed (twice with PBS, twice with PBS supplemented with 1% BSA, and once with PBS supplemented with both 1% BSA and 100 U/mL heparin), before they were harvested into 1 mL of 0.15 M NaOH. Lipids were extracted using the Bligh and Dyer method. The lipid extract was redissolved in dichloromethane, applied to silica gel plates, and separated by thin layer chromatography. A mixture of cholesterol and cholesterol palmitate, were also run as standards. Heptane or a solvent combination of heptane/diethylether/acetic acid (74:21:4, v/v/v) were used as chromatographic mobile phase. After lipid separation, the plates were dried and stained as previously reported. Finally, the spots corresponding to cholesteryl ester (CE) and free cholesterol (FC) were quantitated by densitometry.
The efficacy of each novel compound to decrease the ratio of intracellular cholesteryl esters (CE) and free cholesterol (FC) content of hcVSMC exposed to LDL and SMase-LDL was calculated according to Equation II.
a corresponds to the CE/FC ratio in hcVSMC exposed to SMase-LDL and in the presence of the test compound.
b corresponds to the CE/FC ratio in hcVSMC exposed to nLDL in the absence of the test compound.
c corresponds to the CE/FC ratio in hcVSMC exposed to SMase-LDL in the absence of the test compound.

PLA2-treated LDL = target: T1, PLA2-treated LDL (Homo sapiens, UniProt P04114); experiment: Anti-LDL aggregation assay, turbidimetry, aggregation induced by phospholipase A2 (PLA2); assay type: biochemical; conditions: 18 h, read-out: Inhibition of LDL aggregation, PLA2-treated LDL
T1 construct: from tissue; host or cells: pooled normolipemic human plasma
T1 sequence (P04114 28-4563): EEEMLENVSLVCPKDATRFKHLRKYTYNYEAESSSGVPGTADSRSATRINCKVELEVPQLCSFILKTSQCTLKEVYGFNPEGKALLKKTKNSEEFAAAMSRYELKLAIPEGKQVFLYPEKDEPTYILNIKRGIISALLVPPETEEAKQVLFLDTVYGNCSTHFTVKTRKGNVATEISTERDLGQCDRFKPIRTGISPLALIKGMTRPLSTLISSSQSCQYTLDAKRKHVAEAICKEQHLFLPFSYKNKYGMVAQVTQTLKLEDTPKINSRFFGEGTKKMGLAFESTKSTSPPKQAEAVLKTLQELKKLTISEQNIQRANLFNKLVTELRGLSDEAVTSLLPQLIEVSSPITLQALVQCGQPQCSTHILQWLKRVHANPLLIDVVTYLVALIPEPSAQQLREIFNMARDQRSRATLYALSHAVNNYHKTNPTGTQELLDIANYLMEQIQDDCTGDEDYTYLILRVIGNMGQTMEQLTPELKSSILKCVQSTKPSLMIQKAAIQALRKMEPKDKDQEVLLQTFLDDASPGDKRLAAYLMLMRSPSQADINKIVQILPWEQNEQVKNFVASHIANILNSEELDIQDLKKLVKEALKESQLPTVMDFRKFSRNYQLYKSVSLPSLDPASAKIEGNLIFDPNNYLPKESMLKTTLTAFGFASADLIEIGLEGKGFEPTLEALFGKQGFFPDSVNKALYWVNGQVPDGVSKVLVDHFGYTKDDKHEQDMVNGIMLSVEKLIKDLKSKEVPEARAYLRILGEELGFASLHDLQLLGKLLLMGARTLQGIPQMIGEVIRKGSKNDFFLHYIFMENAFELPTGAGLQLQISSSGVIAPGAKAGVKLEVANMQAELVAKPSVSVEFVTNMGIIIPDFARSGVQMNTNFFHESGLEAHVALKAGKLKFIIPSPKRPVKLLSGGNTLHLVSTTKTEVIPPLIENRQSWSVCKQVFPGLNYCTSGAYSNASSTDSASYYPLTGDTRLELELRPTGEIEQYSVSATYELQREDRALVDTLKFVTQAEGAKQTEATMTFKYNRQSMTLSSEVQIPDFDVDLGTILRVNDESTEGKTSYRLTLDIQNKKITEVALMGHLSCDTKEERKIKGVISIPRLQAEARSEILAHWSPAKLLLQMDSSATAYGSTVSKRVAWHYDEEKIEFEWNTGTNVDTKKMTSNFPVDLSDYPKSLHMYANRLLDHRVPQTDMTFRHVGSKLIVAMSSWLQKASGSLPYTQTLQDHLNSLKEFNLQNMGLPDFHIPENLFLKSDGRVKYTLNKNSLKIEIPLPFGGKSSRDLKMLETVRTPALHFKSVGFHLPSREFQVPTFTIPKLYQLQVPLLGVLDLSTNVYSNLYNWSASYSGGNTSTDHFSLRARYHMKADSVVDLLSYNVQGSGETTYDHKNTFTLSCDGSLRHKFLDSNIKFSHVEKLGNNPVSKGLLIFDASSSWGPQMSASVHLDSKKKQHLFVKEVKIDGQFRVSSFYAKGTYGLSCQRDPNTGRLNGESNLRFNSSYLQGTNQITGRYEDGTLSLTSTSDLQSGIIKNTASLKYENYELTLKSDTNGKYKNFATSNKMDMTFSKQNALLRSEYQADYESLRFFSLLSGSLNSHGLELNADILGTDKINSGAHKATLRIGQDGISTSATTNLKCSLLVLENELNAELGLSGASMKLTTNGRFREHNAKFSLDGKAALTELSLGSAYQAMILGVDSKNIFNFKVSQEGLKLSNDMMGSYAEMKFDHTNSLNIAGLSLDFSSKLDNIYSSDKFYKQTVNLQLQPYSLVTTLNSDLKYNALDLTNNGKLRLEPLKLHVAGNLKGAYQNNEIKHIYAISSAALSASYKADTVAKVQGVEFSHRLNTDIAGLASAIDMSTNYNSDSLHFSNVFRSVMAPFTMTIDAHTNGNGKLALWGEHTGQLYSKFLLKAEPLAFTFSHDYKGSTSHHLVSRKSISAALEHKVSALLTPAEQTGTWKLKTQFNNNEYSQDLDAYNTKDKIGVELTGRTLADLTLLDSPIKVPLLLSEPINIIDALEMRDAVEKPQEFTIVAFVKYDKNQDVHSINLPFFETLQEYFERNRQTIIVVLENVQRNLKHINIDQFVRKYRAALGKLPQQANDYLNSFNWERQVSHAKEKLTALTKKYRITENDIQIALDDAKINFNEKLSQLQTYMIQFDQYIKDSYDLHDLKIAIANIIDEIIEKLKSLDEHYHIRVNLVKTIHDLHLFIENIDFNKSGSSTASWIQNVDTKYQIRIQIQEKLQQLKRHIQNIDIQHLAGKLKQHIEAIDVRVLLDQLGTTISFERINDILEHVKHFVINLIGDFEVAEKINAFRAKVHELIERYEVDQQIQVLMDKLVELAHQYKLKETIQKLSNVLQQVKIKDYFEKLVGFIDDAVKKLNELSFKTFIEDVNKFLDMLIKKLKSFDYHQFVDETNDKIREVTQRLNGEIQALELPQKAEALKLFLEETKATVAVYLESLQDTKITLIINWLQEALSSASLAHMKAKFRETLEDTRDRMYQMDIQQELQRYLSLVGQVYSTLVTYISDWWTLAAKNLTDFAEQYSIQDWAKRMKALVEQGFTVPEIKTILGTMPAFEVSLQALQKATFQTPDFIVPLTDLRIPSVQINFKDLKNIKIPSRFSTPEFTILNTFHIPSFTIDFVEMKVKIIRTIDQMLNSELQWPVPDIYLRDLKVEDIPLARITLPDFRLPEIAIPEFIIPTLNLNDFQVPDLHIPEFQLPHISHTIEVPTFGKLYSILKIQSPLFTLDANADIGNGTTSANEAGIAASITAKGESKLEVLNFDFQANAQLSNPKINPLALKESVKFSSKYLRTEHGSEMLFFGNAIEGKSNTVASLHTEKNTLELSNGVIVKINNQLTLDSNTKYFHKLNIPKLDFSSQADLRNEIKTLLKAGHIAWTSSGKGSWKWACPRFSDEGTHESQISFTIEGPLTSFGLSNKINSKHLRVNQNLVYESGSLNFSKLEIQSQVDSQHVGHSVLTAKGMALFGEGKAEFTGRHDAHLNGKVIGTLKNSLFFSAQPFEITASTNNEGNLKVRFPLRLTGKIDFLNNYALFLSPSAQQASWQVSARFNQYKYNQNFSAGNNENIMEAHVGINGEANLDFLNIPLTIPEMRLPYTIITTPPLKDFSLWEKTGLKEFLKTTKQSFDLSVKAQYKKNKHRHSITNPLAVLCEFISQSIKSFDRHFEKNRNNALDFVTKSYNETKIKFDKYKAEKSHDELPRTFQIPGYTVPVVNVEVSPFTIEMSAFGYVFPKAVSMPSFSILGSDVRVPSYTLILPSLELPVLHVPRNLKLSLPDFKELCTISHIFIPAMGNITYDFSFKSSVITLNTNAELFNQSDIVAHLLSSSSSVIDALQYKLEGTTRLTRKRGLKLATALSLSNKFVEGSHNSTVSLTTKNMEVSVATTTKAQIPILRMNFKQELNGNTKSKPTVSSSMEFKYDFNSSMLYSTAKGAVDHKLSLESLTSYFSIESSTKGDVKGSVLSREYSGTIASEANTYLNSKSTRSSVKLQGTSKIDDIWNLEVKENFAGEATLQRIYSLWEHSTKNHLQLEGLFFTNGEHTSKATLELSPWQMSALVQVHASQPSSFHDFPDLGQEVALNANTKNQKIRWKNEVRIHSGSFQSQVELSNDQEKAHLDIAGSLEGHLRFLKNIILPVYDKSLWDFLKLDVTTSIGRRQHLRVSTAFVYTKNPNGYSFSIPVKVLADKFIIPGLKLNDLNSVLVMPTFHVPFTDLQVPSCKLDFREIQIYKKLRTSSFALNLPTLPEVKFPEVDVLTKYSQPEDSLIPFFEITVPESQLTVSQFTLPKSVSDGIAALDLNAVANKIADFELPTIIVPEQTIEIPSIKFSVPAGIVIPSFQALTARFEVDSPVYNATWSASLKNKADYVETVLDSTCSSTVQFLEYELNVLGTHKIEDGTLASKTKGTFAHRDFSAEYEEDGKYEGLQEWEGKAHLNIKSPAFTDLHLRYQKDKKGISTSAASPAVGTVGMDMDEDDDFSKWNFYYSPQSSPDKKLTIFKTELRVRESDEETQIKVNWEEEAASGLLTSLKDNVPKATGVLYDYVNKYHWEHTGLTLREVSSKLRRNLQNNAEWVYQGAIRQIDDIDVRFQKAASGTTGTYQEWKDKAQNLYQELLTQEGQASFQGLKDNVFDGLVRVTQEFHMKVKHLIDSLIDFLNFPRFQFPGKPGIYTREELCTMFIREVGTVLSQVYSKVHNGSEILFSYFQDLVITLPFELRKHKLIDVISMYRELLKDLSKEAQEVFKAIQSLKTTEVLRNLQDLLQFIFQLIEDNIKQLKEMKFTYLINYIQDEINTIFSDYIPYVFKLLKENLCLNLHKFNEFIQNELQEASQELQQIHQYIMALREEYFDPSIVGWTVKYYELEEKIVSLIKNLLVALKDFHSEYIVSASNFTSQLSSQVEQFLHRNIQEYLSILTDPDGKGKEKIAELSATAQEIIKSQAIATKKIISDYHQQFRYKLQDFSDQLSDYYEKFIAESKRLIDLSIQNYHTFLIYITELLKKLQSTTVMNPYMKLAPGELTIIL
Description: (§1) The efficacy of the novel compounds to inhibit the aggregation of LDL has been tested in two parallel turbidimetric assays differing from each other only in the enzyme used to induce LDL aggregation, namely sphingomyelinase (SMase) and phospholipase A2 (PLA2), respectively.
(§2) Human LDL (d1.019-d1.063 g/mL) were obtained from pooled normolipemic human plasma by sequential ultracentrifugation in a KBr density gradient. Briefly, VLDL were first discarded after spinning plasma at 36.000 rpm for 18 h at 4° C., VLDL-free plasma was layered with 1.063 g/mL KBr solution and centrifuged at 36,000 rpm for 18 h at 4° C. LDL were dialyzed against 0.02 M Tris, 0.15 M NaCl, 1 mM EDTA, pH 7.5 for 18 hours, and then against normal saline for 2 hours. Finally, isolated LDL were filter-sterilized. Protein concentration was determined using a colorimetric assay.
(§3) Human LDL particles (1.44 mg/mL) were incubated with 40 U/L of Bacillus cereus SMase or with 50 μg/L of type II secretory PLA2 from honey bee venom in 20 mM Tris buffer (pH 7.0) containing 150 mM NaCl, 2 mM CaCl2), and MgCl2 at 37° C. LDL incubation with SMase and PLA2 was performed at peptide concentration of 10 μM (ratio compound/ApoB-100: 4.7/1) for 18 hours. LDL lipolysis was stopped by addition of EDTA (final concentration 10 mM).
(§4) The efficiency of each novel compound to inhibit LDL aggregation induced by SMase and PLA2 was estimated by turbidimetry measuring the absorbance at a wavelength of 405 nm. Thus, the inhibitory activity was calculated according to Equation I.
(§5) a corresponds to the absorbance value in the presence of nLDL particles, LDL aggregating enzyme (i.e., SMase or PLA2) and test compound;
(§6) b corresponds to the absorbance value in the presence of only nLDL particles;
(§7) c corresponds to the absorbance value in the presence of nLDL particles and LDL aggregating enzyme (i.e., SMase or PLA2);

SMase-treated LDL = target: T2, SMase-treated LDL (Homo sapiens, UniProt P04114); experiment: Anti-LDL aggregation assay, turbidimetry, aggregation induced by sphingomyelinase (SMase); assay type: biochemical; conditions: peptide 10 μM (compound/ApoB-100 4.7/1), human LDL 1.44 mg/mL, 40 U/L Bacillus cereus SMase, 18 hours, 37° C., absorbance at 405 nm, Equation I
T2 construct: from tissue; host or cells: pooled normolipemic human plasma
T2 sequence (P04114 28-4563): as above
Description: as §1, §2, §3, §4, §5, §6, §7

Compound | CE/FC ratio decrease (%) [1] | inhibition at 10 µM (PLA2-treated LDL) | inhibition at 10 µM (SMase-treated LDL)
CC(=O)N[C@H](CC(N)=O)C(=O)N[C@H](CC(=O)O)C(=O)N[C@H](CO)C(=O)N[C@H](CCC(=O)O)C(=O)N[C@H](CC(=O)O)C(=O)N[C@H](CC(N)=O)C(=O)N[C@H](CO)C(=O)NC(CC(=O)O)C(=O)N[C@H](CCC(=O)O)C(=O)N[C@H](CCC(=O)O)C(=O)N[C@H](C)C(N)=O (stereo partly drawn) [Example 14, Ac-D-Asn-D-Asp-D-Ser-D-Glu-D-Asp-D-Asn-D-Ser-D-Asp-D-Glu-D-Glu-D-Ala-NH2] (Ac-[dN][dD][dS][dE][dD][dN][dS][ξD][dE][dE][dA]-NH2) | 62.7% | 74% | 68.3%
CC(=O)N[C@H](CO)C(=O)N[C@H](CCC(=O)O)C(=O)N[C@H](CC(=O)O)C(=O)N[C@H](CC(N)=O)C(=O)N[C@H](CCCNC(=N)N)C(=O)N[C@H](CC(=O)O)C(=O)N[C@H](CCC(=O)O)C(=O)N[C@H](CCC(=O)O)C(=O)N[C@H](CCCNC(=N)N)C(N)=O [Example 6, Ac-D-Ser-D-Glu-D-Asp-D-Asn-D-Arg-D-Asp-D-Glu-D-Glu-D-Arg-NH2] (Ac-[dS][dE][dD][dN][dR][dD][dE][dE][dR]-NH2) | 58.8% | 15.3% | 85%
CC(=O)N[C@H](CC(=O)O)C(=O)N[C@H](CC(N)=O)C(=O)N[C@H](CC(=O)O)C(=O)N[C@H](CO)C(=O)N[C@H](CCC(=O)O)C(=O)N[C@H](CC(=O)O)C(=O)N[C@H](CC(N)=O)C(=O)N[C@H](CO)C(=O)N[C@H](CC(=O)O)C(=O)N[C@H](CCC(=O)O)C(=O)N[C@H](CCC(=O)O)C(=O)N[C@H](CC(N)=O)C(N)=O [Example 10, Ac-D-Asp-D-Asn-D-Asp-D-Ser-D-Glu-D-Asp-D-Asn-D-Ser-D-Asp-D-Glu-D-Glu-D-Asn-NH2] (Ac-[dD][dN][dD][dS][dE][dD][dN][dS][dD][dE][dE][dN]-NH2) | 78.4% | 94% | 96%
CC(=O)N[C@H](CC(=O)O)C(=O)N[C@H](CO)C(=O)N[C@H](CCC(=O)O)C(=O)N[C@H](CC(=O)O)C(=O)N[C@H](CC(N)=O)C(=O)N[C@H](CO)C(=O)N[C@H](CC(=O)O)C(=O)N[C@H](CCC(=O)O)C(=O)N[C@H](CCC(=O)O)C(=O)N[C@H](CC(N)=O)C(N)=O [Example 12, Ac-D-Asp-D-Ser-D-Glu-D-Asp-D-Asn-D-Ser-D-Asp-D-Glu-D-Glu-D-Asn-NH2] (Ac-[dD][dS][dE][dD][dN][dS][dD][dE][dE][dN]-NH2) | 76.5% | 94.3% | 93.3%
CC(=O)N[C@H](CC(=O)O)C(=O)N[C@H](CC(N)=O)C(=O)N[C@H](CC(=O)O)C(=O)N[C@H](CO)C(=O)N[C@H](CCC(=O)O)C(=O)NC(CC(=O)O)C(=O)N[C@H](CC(N)=O)C(=O)N[C@H](CO)C(=O)N[C@H](CC(=O)O)C(=O)N[C@H](CCC(=O)O)C(=O)N[C@H](CCC(=O)O)C(=O)N[C@H](C)C(N)=O (stereo partly drawn) [Example 13, Ac-D-Asp-D-Asn-D-Asp-D-Ser-D-Glu-D-Asp-D-Asn-D-Ser-D-Asp-D-Glu-D-Glu-D-Ala-NH2] (Ac-[dD][dN][dD][dS][dE][ξD][dN][dS][dD][dE][dE][dA]-NH2) | 80.4% | 95.9% | 95.5%
CC(=O)N[C@H](CO)C(=O)N[C@H](CCC(=O)O)C(=O)N[C@H](CC(=O)O)C(=O)N[C@H](CC(N)=O)C(=O)N[C@H](CO)C(=O)N[C@H](CC(=O)O)C(=O)N[C@H](CCC(=O)O)C(=O)N[C@H](CCC(=O)O)C(=O)N[C@H](CC(N)=O)C(N)=O [Example 2, Ac-D-Ser-D-Glu-D-Asp-D-Asn-D-Ser-D-Asp-D-Glu-D-Glu-D-Asn-NH2] (Ac-[dS][dE][dD][dN][dS][dD][dE][dE][dN]-NH2) | 58.8% | 87.7% | 80.7%
CC(=O)N[C@H](CC(=O)O)C(=O)N[C@H](C)C(=O)N[C@H](CCC(=O)O)C(=O)N[C@H](CC(=O)O)C(=O)N[C@H](CC(N)=O)C(=O)N[C@H](C)C(=O)N[C@H](CC(=O)O)C(=O)N[C@H](CCC(=O)O)C(=O)N[C@H](CCC(=O)O)C(=O)N[C@H](C)C(N)=O [Example 17, Ac-D-Asp-D-Ala-D-Glu-D-Asp-D-Asn-D-Ala-D-Asp-D-Glu-D-Glu-D-Ala-NH2] (Ac-[dD][dA][dE][dD][dN][dA][dD][dE][dE][dA]-NH2) | 67.4% | 66.1% | 95.2%
